Experimental data reported in patent US10123541B2, “Biocidal mixture, use of biocidal mixture and compositions comprising a biocidal mixture” (ISP Investments LLC, priority 2014, dated 2018).

Tests used:
Assay in all cases: Minimum Inhibitory Concentration (MIC) growth test
Type in all cases: cell-based
[1] = system: Burkholderia cepacia, ATCC 25416; set-up: key to growth of organisms: − = no growth; + = low growth; ++ = moderate growth; +++ = high growth
From the text: (§1) This example intends to analyze the microbial activity of the mixture of invention compared to the individual activity of the mixture components using the methodology that determines the minimal concentration of the substance or mixture that inhibits microorganism growth.
(§2) The tested micro-organisms were: • Staphylococcus aureus, ATCC 6538 • Escherichia coli, ATCC 8739 • Pseudomonas aeruginosa, ATCC 9027 • Burkholderia cepacia, ATCC 25416 • Candida albicans, ATCC 10231 • Aspergillus brasiliensis, ATCC 16404
(§3) The samples of the table above were initially prepared with an initial concentration of 3% based on their solubility in water, and then diluted to achieve the following concentrations: 1.5%; 0.75%; 0.375%; 0.1875%; 0.09375%.
(§4) The dilutions were obtained as follows: (a) to a first test tube containing 5 mL of tripticase soy broth (TSB), 5 mL of 3% concentration solution were added and the mixture was vortexed. 5 mL of the contents of this tube were removed and added to a second tube containing 5 mL of TSB and the mixture was vortexed. This procedure was repeated until obtaining the various concentrations.
(§5) The tested organisms were prepared as typical organism inoculants, under the form of a saline suspension. The concentration of bacterial inoculants was approximately 1×10^6 cfu/mL (“colony-forming unit per milliliter”). The concentration of fungal inoculants was approximately 1×10^5 spores/mL. In the sequence, each sample solution was inoculated with 0.1 mL of organism inoculum and vortexed. The tubes containing bacteria were incubated for 24 hours at 35° C. and the tubes containing fungi were incubated for 48 hours at 25° C.
(§6) An aliquot of 0.1 mL from these tubes was transferred to a tube having 9 mL of Letheen broth containing neutralizing agents. These Letheen tubes were again incubated for 48 hours with Letheen under incubation temperature for bacteria or fungi. Then, a swab previously wet with TSB was put in contact with sample solutions with concentrations 1.5%; 0.75%; 0.375%; 0.1875% and 0.09375%, and then they were swiped over the surface of culture plates (for bacteria: Letheen agar, AOAC—Association of Official Analytical Chemists; for fungi: Mycophil® agar of low pH with Tween® 20 polysorbate surfactant).

[2] = system: Escherichia coli, ATCC 8739; set-up: key to growth of organisms: − = no growth; + = low growth; ++ = moderate growth; +++ = high growth
From the text: as §1, §2, §3, §4, §5, §6

[3] = system: Staphylococcus aureus, ATCC 6538; set-up: key to growth of organisms: − = no growth; + = low growth; ++ = moderate growth; +++ = high growth
From the text: as §1, §2, §3, §4, §5, §6

[4] = system: Aspergillus brasiliensis, ATCC 16404; set-up: key: − = no growth; + = low growth; ++ = moderate growth; +++ = high growth
From the text: as §1, §2, §3, §4, §5, §6

[5] = system: Candida albicans, ATCC 10231; set-up: key: − = no growth; + = low growth; ++ = moderate growth; +++ = high growth
From the text: as §1, §2, §3, §4, §5, §6

[6] = system: Pseudomonas aeruginosa, ATCC 9027; set-up: key: − = no growth; + = low growth; ++ = moderate growth; +++ = high growth
From the text: as §1, §2, §3, §4, §5, §6

SMILES: OCCCc1ccccc1 [Sample 1, Phenylpropanol]
- inhibition of growth (in words) ([1]; concentration of 1.5%): not able to inhibit the growth
- growth of organisms ([1]; sample concentration 0.09375%): +
- growth of organisms ([1]; sample concentration 0.1875%): +
- growth of organisms ([1]; sample concentration 0.375%): +
- growth of organisms ([1]; sample concentration 0.75%): +
- growth of organisms ([1]; sample concentration 1.5%): +
- inhibition of growth (in words) ([2]; concentration of 1.5%): not able to inhibit the growth
- growth of organisms ([2]; sample concentration 0.09375%): +
- growth of organisms ([2]; sample concentration 0.1875%): +
- growth of organisms ([2]; sample concentration 0.375%): +
- growth of organisms ([2]; sample concentration 0.75%): +
- growth of organisms ([2]; sample concentration 1.5%): +
- inhibition of growth (in words) ([3]; concentration of 1.5%): not able to inhibit the growth
- growth of organisms ([3]; sample concentration 0.09375%): +
- growth of organisms ([3]; sample concentration 0.1875%): +
- growth of organisms ([3]; sample concentration 0.375%): +
- growth of organisms ([3]; sample concentration 0.75%): +
- growth of organisms ([3]; sample concentration 1.5%): +
- growth of organisms ([4]; sample concentration 0.09375%): +
- growth of organisms ([4]; sample concentration 0.1875%): +
- growth of organisms ([4]; sample concentration 0.375%): +
- growth of organisms ([4]; sample concentration 0.75%): −
- growth of organisms ([4]; sample concentration 1.5%): −
- growth of organisms ([5]; sample concentration 0.09375%): +
- growth of organisms ([5]; sample concentration 0.1875%): +
- growth of organisms ([5]; sample concentration 0.375%): +
- growth of organisms ([5]; sample concentration 0.75%): −
- growth of organisms ([5]; sample concentration 1.5%): −
- growth of organisms ([6]; sample concentration 0.09375%): +
- growth of organisms ([6]; sample concentration 0.1875%): +
- growth of organisms ([6]; sample concentration 0.375%): +
- growth of organisms ([6]; sample concentration 0.75%): +
- growth of organisms ([6]; sample concentration 1.5%): −
